# According to patent US20230338347A1, “New Use of Inhibitors of the Notch Signalling Pathway” (Cellestia Biotech AG, priority 2020, published 2023):
# Key:
# [1] = Phase I/IIA study: pharmacokinetics after oral administration; format: in vivo, human
# Excerpt: This […] study is an ongoing first-in-human, open-label study investigating the safety, tolerability, pharmacokinetics (PK), pharmacodynamics (PD) and preliminary efficacy of the pan-NOTCH inhibitor 6-(4-Tert-Butylphenoxy)Pyridin-3-Amine in adult patients with locally advanced or metastatic solid tumours or hematologic malignancies.
# The study is designed as an open label, non-randomised, uncontrolled […] dose escalation study with expansion cohorts of 6-(4-Tert-Butylphenoxy)Pyridin-3-Amine administered orally on a once-daily schedule, based on a 28-day treatment cycle. The dosing will be 15, 30, 60, 120, 170, 250, 400, or 600 mg of the 6-(4-Tert-Butylphenoxy)Pyridin-3-Amine monohydrochloride salt or higher per day or alternatively 20, 40, 60, 120, 170, 250, 400, or 600 mg of the 6-(4-Tert-Butylphenoxy)Pyridin-3-Amine monohydrochloride salt or higher per day. Dosing of 15, 30, 60, 120, 170, 250, 400, or 600 mg of the 6-(4-Tert-Butylphenoxy)Pyridin-3-Amine monohydrochloride salt corresponds to dosing of 13, 26, 52, 104, 148, 217, 348, or 522 mg of 6-(4-Tert-Butylphenoxy)Pyridin-3-Amine (free base). Dosing of 20, 40, 60, 120, 170, 250, 400, or 600 mg of the 6-(4-Tert-Butylphenoxy)Pyridin-3-Amine monohydrochloride salt corresponds to dosing of 17, 35, 52, 104, 148, 217, 348, or 522 mg of 6-(4-Tert-Butylphenoxy)Pyridin-3-Amine (free base). For this study, 6-(4-Tert-Butylphenoxy)Pyridin-3-Amine monohydrochloride salt was formulated into a capsule having a drug load of 5, 10, 20, 50 and 100 mg, respectively intended to be administered orally. • Patients will meet the following criteria:
# 6-(4-Tert-Butylphenoxy)Pyridin-3-Amine is rapidly absorbed after oral administration and reaches Cmax within 1 to 2 hours of dosing. […] The elimination half-life is approximately 20 hours and 6-(4-Tert-Butylphenoxy)Pyridin-3-Amine accumulates about 2-fold with repeated daily administration.
# [2] = test system: adenoid cystic carcinoma (ACC); assay: Phase I/IIA study: preliminary clinical efficacy (best response, disease control rate); format: in vivo, human; conditions: for Disease control rate (CR, PR or SD / patients treated): 19 ACC patients
# Excerpt: Each lane represents one patient and the length of the lane represents the duration of treatment. […] Disease control rate of 19 patients with adenoid cystic carcinoma at 8 weeks and 20 weeks was 79% and 58%, respectively (calculated as number of patients with complete or partial response, or stable disease divided by the number of patients with that indication treated). Abbreviations: SD, stable disease; PD, progressive disease; NA, not applicable).
# The primary outcome measures for this study are: • Part A (Escalation): Dose limiting toxicities (DLT) • Part B (Expansion): Best overall response according to the respective tumour assessment criteria for the different cancer indications.
# The Notch status of the other patients is under investigation. Disease control rate (DCR) of 19 ACC patients at 8 weeks and 20 weeks was 79% and 58%, respectively (DCR defined as number of patients with CR, PR, or SD divided by the number of patients treated).
structure (smiles),measurement,setting,value
CC(C)(C)c1ccc(Oc2ccc(N)cn2)cc1 [6-(4-Tert-Butylphenoxy)Pyridin-3-Amine],time to steady state concentrations,[1]; daily dosing,within one week
same,Tmax,"[1]; human, plasma, after oral administration, read-out: time to reach Cmax",1 to 2 h
same,half-life,"[1]; human, plasma, oral, read-out: elimination half-life (converted)",~20 h
same,accumulation with repeated daily administration,"[1]; oral, daily",about 2 fold
same,plasma exposure versus dose,"[1]; oral, dose range tested",increases with increasing doses
same,saturation of absorption,"[1]; oral, dose range tested",no signs of saturated absorption
same,number of ACC patients with radiologically confirmed stable disease,[2]; 4 of them with Notch activating mutation,Ten
same,"Disease control rate (CR, PR or SD / patients treated)",[2]; at 8 weeks,79%
same,"Disease control rate (CR, PR or SD / patients treated)",[2]; at 20 weeks,58%
same,best response,[2]; at doses showing target engagement,durable stable disease
